Assay results taken from US20110117168A1, “METHODS AND COMPOSITIONS FOR SOFT TISSUE REPAIR” (AFFINERGY, INC., priority 2009, published 2011).
Ends that are not written are not given here.

Tests used:
[1] = tested on: MSCs; experiment: Immunoreactivity of cells captured from bone marrow aspirate; type: cell-based, human; settings: CD29, CD44, CD73, CD105, CD166, CD90, CD45, CD34
Method: (§1) This experiment was performed to examine the ability of cell binding peptide SEQ ID NO: 4 to capture MSCs directly from bone marrow aspirate in comparison to two separate antibodies against the CD105 I antigen (CD105) and the MSCA-1 stem cell antigen (MSCA-1). This experiment employed biotinylated peptides with streptavidin-coated […] magnetic beads. The peptides were biotinylated as described herein at Example 2. […] For the antibody capture experiment, magnetic beads having covalently attached CD105 or MSCA-1 antibody were employed ([…]). Prior to incubation with the peptides and antibodies, bone marrow aspirate (BMA) was mixed with 5 volumes of 10 mM ammonium chloride for 1-2 min at room temperature to lyse red blood cells. The lysate was centrifuged for 5 min at 300×g and the supernatant discarded. The cell pellet was washed with wash buffer (PBS+0.5% bovine serum albumin+0.5 mM EDTA) and cells were resuspended in […] peptide at a concentration of 10^8 per mL. For peptide binding studies, the cell suspension was incubated with the biotinylated peptides for 30 min at 4° C. to allow for binding. After incubation, cells were spun down at 300×g for 5 min, and peptide solution was aspirated. Cells were then rinsed twice with wash buffer, with centrifugation between washes. […] Colony forming units (CFUs) were counted after 14 days in culture. […]

[2] = tested on: MSCs; experiment: Capture of MSCs from bone marrow aspirate, colony forming units; type: cell-based, human; settings: biotinylated peptide, streptavidin-coated MILTENYI beads; compared to CD105 and MSCA-1 antibody beads
Method: as §1

[3] = tested on: MSCs; experiment: Osteoblast differentiation of peptide-captured MSCs (Alizarin Red S); type: cell-based, human; settings: 14 days in osteoblast differentiation medium
Method: Osteoblast differentiation. For osteogenic differentiation, the MSCs present in the […] column eluants (see Example 6) were cultured for 14 days in complete medium supplemented with 0.1 μM dexamethasone, 50 μM ascorbate-2-phosphate, 10 mM β-glycerophosphate, and 1% antibiotic/antimycotic. Calcium mineralization was measured by Alizarin Red S (SIGMA) staining to reveal mineralizing osteoblasts (see FIG. 26, panel C (undifferentiated MSCs) and panel D (osteoblast differentiated MSCs)).

[4] = tested on: UASMCs; experiment: Biotinylated peptide binding to endothelial and other cells by flow cytometry; type: cell-based; settings: biotinylated peptide 10 μM, 30 min at 4° C.
Method: (§2) The synthetic biotinylated binding peptide SEQ ID NO: 4 was further examined for its ability to bind endothelial cells compared to other cell types (see FIG. 16). […] ECFCs are clonally expanded cells isolated from human umbilical cord blood, and are considered highly proliferative endothelial progenitor cells (EPCs) based on their clonogenic and proliferative potential. In another experiment, binding peptide SEQ ID NO: 4 was assayed for its ability to selectively isolate endothelial cells versus smooth muscle cells in the presence of whole blood. HUVECs or UASMCs were incubated in the presence of medium containing 20% whole blood and binding peptide SEQ ID NO: 4-conjugated magnetic beads (via biotin-SA) for 30 min. The solutions containing the bead-peptide-cell complexes were then passed through a […] LS column in a magnetic field. The column was washed, and the remaining peptide-bound cells were then released from the magnetic field and counted.

[5] = tested on: ECFCs; experiment: as above; type: cell-based, human; settings: biotinylated peptide 10 μM, 30 min at 4° C.
Method: as §2

[6] = tested on: peripheral blood cells; experiment: as above; type: cell-based, human; settings: biotinylated peptide 10 μM, 30 min at 4° C.
Method: as §2

[7] = tested on: HUVECs; experiment: as above; type: cell-based, human; settings: biotinylated peptide 10 μM, 30 min at 4° C.
Method: as §2

[8] = tested on: dermal fibroblasts; experiment: Biotinylated peptide cell binding specificity by flow cytometry (Neutravidin-PE); type: cell-based, human; settings: 25 μM peptide solution, 30 min at 4° C.
Source text: The synthetic biotinylated cell binding peptide SEQ ID NO: 4 was examined for its ability to specifically bind MSCs compared to a number of other cells types including adipose-derived mesenchymal stem cells (ASCs), dermal fibroblasts, rodent MSCs, red blood cells, monocytes, lymphocytes and granulocytes. The cell binding peptide was biotinylated as described herein at Example 2. Cultured cells of each type were either purchased (ASCs and dermal fibroblasts) or isolated from rodent bone marrow (rodent MSCs) or human blood. Cells were first harvested and resuspended at 10^6/mL in PBS+2% fetal bovine serum (FBS). An aliquot of cells (50 μL) was incubated in 50 μL of peptide solution (25 μM in PBS+FBS) for 30 min at 4° C. Cells were then washed twice in PBS+FBS with 300×g centrifugation for 5 min between washes. Fluorescently-tagged neutravidin (Neutravidin-PE from INVITROGEN) was then added to the cells to label biotinylated peptide bound to cells. Neutravidin-PE was diluted 1:250 from stock and applied at 50 μL to cells. Cells were then washed in PBS+FBS, and acquired on a BD […]. Peptide reactivity was then measured as percent positivity relative to Neutravidin-PE staining without the addition of biotinylated peptide.

## SSFWDVCQGDGTCYGGGSR (SSFWDVCQGDGTCYGGGSRGSSG-{K(biotin)}; cysteine pairing not given here) [SEQ ID NO: 4, tested biotinylated with GSSGK(biotin) or other spacer at the C-terminus]
[1]
  immunoreactivity of isolated cells compared with CD105 isolated cells: no changes were observed
[2]
  MSC capture from bone marrow aspirate (CFUs after 14 days in culture): as efficient as capture by either of the CD105 or MSCA-1 antibodies
[3]
  osteoblast differentiation of captured MSCs: osteogenic pathway remains intact
[4]
  cross-reactivity with UASMCs: weakly
[5]
  cross-reactivity with ECFCs: strongly
[6]
  cross-reactivity with peripheral blood cells: no cross-reactivity
[7]
  cross-reactivity with HUVECs: strongly
[8]
  binding to dermal fibroblasts (percent positivity relative to Neutravidin-PE staining): high binding
